Test results published in patent publication US4719207A, “CNS active substituted azetidinone compounds” (Yamanouchi Pharmaceutical Co., Ltd., priority 1984, dated 1988).
Read-outs that look alike come from different tables or passages of the source.

Experiments:
mice = experiment: Reversal effect against pentobarbital-induced hypothermia (Experiment 1); assay type: in vivo; conditions: i.v., 10 minutes after pentobarbital (55 mg/kg i.p.), rectal temperature 30 minutes after test compound, dose required to reduce pentobarbital-hypothermia by 1.5° C.; for ED (1.5 degC): Mus musculus, iv, 0.5 h, read-out: Reversal effect against pentobarbitalhypothermia ED1.5° C
Procedure: The following experiments show the action on low body temperature induced by pentobarbital (Experiment 1), and on acute toxicity for typical compounds of the present invention.
Pentobarbital-induced hypothermia
Nine male mice weighing 18 to 22 g were used for each dosage of the test compounds. Mice were given intravenously various doses of test compounds 10 minutes after pentobarbital (55 mg/kg i.p.). Rectal temperature was measured before pentobarbital dosing and immediately before and 30 minutes after the test compounds. Effects of test compounds were evaluated as ED1.5° C., the dose required to reduce by 1.5° C. pentobarbital-hypothermia of control group of mice which received only pentobarbital and saline. The results are shown in Talbe 1.
(A) Reversal effect against pentobarbitalhypothermia ED1.5° C

Acute toxicity (i.v.) = experiment: Acute toxicity (i.v.); parameters: species or system mice; conditions: mouse, in vivo, iv
Procedure: That is, LD50 (i.v.) of the compound of the present invention was higher than 800 mg/kg.

Structure (SMILES) | ED (1.5 degC) (mice) | also measured
C[C@H]1C(=O)N[C@@H]1C(=O)N[C@@H](Cc1cn(C)cn1)C(=O)N1CCC[C@H]1C(N)=O [.tau.-Methyl-N^α --[(2S,3R)--3-methyl-4-oxo-2-azetidinyl-carbonyl]-L-histidyl-L-prolinamide] | 0.02 mg/kg | –
CS[C@H]1C(=O)N[C@@H]1C(=O)N[C@@H](Cc1c[nH]cn1)C(=O)N1CCC[C@H]1C(N)=O [N^α -[(2R,3R)-3-methylthio-4-oxo-2-azetidinylcarbonyl]-L-histidyl-L-prolinamide] | 0.08 mg/kg | –
[N-]=[N+]=N[C@H]1C(=O)N[C@@H]1C(=O)N[C@@H](Cc1c[nH]cn1)C(=O)N1CCC[C@H]1C(N)=O [N^α -[(2S,3R)-3-azido-4-oxo-2-azetidinylcarbonyl]-L-histidyl-L-prolinamide] | < 0.01 mg/kg | –
NC(=O)[C@@H]1CCCN1C(=O)[C@H](Cc1c[nH]cn1)NC(=O)[C@H]1NC(=O)[C@@H]1Cc1ccccc1 [N^α -[(2S,3R)-3-benzyl-4-oxo-2-azetidinylcarbonyl]-L-histidyl-L-prolinamide] | 0.04 mg/kg | –
CC(O)[C@H]1C(=O)N[C@@H]1C(=O)N[C@@H](Cc1c[nH]cn1)C(=O)N1CCC[C@H]1C(N)=O (stereo partly drawn) [N^α -[(2S,3S)-3-(1-hydroxyethyl)-4-oxo-2-azetidinylcarbonyl]-L-histidyl-L-prolinamide] | 0.07 mg/kg | –
NC(=O)[C@@H]1CCCN1C(=O)[C@H](Cc1c[nH]cn1)NC(=O)[C@@H]1CC(=O)N1CO [N^α -[(S)-1-hydroxymethyl-4-oxo-2-azetidinylcarbonyl]-L-histidyl-L-prolinamide] | 0.04 mg/kg | –
Cn1cnc(C[C@H](NC(=O)[C@H]2NC(=O)C2(C)C)C(=O)N2CCC[C@H]2C(N)=O)c1 [N^α -[(S)-3,3-dimethyl-4-oxo-2-azetidinylcarbonyl]-.tau.-methyl-L-histidyl-L-prolinamide] | 0.01 mg/kg | –
CC1(C)C(=O)N[C@@H]1C(=O)N[C@@H](Cc1c[nH]cn1)C(=O)N1CCC[C@H]1C(N)=O [N^α -[(S)-3,3-dimethyl-4-oxo-2-azetidinylcarbonyl]-L-histidyl-L-prolinamide] | – | LD50 at 24 h (Acute toxicity (i.v.)): > 800 mg/kg
NC(=O)[C@@H]1CCCN1C(=O)[C@H](Cc1c[nH]cn1)NC(=O)[C@@H]1CCC(=O)N1 [TRH, L-pyroglutamyl-L-histidyl-L-prolinamide, reference compound] | – | Reversal effect against pentobarbitalhypothermia ED1.5° C (mice): 0.1 mg/kg; LD50 at 24 h (Acute toxicity (i.v.); male mice, observed for 24 hours, read-out: LD50 (i.v.)): 751 mg/kg
